For series [1] the following is noted: Crystal; visual observation.
Series [2] is described as follows: molar enthalpy of vaporization or sublimation. The following applies: 298.15 K; Crystal; drop calorimetry.

± gives the expanded uncertainty stated by the source.

As for `O=[N+]([O-])c1cccc2nsnc12` [4-nitro-2,1,3-benzothiadiazole], the Normal melting temperature in series [1] came to 110 ± 1 °C. In addition, in series [2], the molar enthalpy is 24.3 ± 2.06 kcal/mol.

Values taken from the NIST ThermoML archive (doi:10.1016/j.jct.2012.01.018).
